The values that follow come from patent US12415807B2, “PKC inhibitor solid state forms” (MingSight Pharmaceuticals, Inc., priority 2017, dated 2025).

As a reminder, the IC50 is the midpoint of a concentration-inhibition curve. A high value points to lower potency.

Test [1] deals with pSHP2 (PKCβ cell assay). The experiment in a line: pSHP2 (PKCβ cell assay). Type of test: cell-based. The source says: (§1) The methods for these determinations have been described (Grant, et al. 2010, Eur. J. Pharmacol. 627:16-25).
Test [2] has as its system Interleukin-8 release. Briefly: Interleukin-8 release. It counts as cell-based.
Text: as §1

Test [3] addresses Human PKC delta (Homo sapiens, UniProt Q05655). The experiment in a line: In vitro PKC inhibition, PKC delta. Type of test: biochemical.
Text: as §1

Chain of Human PKC delta (Q05655 whole entry): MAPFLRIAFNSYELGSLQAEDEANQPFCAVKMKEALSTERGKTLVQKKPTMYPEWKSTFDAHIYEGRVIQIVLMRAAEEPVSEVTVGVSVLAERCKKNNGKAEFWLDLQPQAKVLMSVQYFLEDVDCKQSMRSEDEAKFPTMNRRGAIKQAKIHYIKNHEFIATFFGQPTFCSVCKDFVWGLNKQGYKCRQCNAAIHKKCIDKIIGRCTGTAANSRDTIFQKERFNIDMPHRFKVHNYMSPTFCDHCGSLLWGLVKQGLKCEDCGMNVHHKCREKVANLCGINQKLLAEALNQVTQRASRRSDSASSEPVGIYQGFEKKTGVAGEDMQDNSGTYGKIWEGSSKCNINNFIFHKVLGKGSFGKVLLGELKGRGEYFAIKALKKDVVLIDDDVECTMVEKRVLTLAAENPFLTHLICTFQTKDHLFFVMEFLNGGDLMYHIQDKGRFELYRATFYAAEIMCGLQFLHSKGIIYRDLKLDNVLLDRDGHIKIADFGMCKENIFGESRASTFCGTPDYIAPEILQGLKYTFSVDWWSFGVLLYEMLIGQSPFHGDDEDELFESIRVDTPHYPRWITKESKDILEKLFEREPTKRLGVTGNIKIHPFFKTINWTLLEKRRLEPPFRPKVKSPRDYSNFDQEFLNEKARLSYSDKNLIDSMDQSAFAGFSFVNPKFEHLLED

For the molecule `Cc1ncc(F)c(Nc2n[nH]c3c2CN(C(=O)N2C[C@@H](C)N(CC4CCOCC4)C[C@@H]2C)C3(C)C)n1` [Compound 1, 5-{[(2S,5R)-2,5-dimethyl-4-(tetrahydro-2H-pyran-4-ylmethyl)piperazin-1-yl]carbonyl}-N-(5-fluoro-2-methylpyrimidin-4-yl)-6,6-dimethyl-1,4,5,6-tetrahydropyrrolo[3,4-c]pyrazol-3-amine], the IC50 in test [1] stood at 9.8 nM; in test [2], 39 nM. Also, in test [3], the “Inhibition of PKC delta (in words)” value was “does not significantly inhibit”.
